How the values were obtained:
[1] = tested on: TGFβ/SMAD Singling Pathway SBE reporter cell line; assay: TGFβ reporter assay (in vitro small molecule screening); format: cell-based; details: SBE luciferase reporter cells, TGFβ stimulation, 18 h, luminescence
Description: TGFβ/SMAD Singling Pathway SBE reporter cell line was obtained from BPS Bioscience. Cells were passed, expanded, and stored in liquid nitrogen as per the supplier's instructions with the exception that growth media is changed to DMEM-C with Geneticin (DMEM supplemented with 10% fetal bovine serum, 1×NEAA, 1 mM Pyruvate, 2 mM glutamine, 50 μg/mL penicillin, 50 U/mL streptomycin and 400 μg/mL of Geneticin). The assay media was MEM supplemented with […] fetal bovine serum, 1×NEAA, 1 mM Pyruvate, 50 μg/mL penicillin and 50 U/mL streptomycin.
Test samples (at desired concentrations diluted in assay media) were added to a 96-well assay plate, 20 μL per well. Reporter cells were harvested from the tissue culture flasks by incubation in small quantity of PBS at 37° C. for two minutes after the media in the flask is removed and cells rinsed with PBS. Cells were counted and diluted in the assay media at approximately 0.5×10^6 cells/mL and then 80 μL/well of cells were added to the assay plate containing the 20 μL/well of test samples (or media only), and incubated for approximately 5-6 hours at 37° C. in a 5% CO2 humidified incubator. After that time, 15 μL of TGFβ diluted to 12 ng/mL in the assay media was added to the plate. Controls included TGFβ titration (from 50 to 0 ng/mL) without inhibitors, and media only (without cells, inhibitor or TGFβ). Plates were incubated at 37° C. in a 5% CO2 humidified incubator for 18 h. Luciferase substrate solution is subsequently added at 100 μL per well, incubated in the dark at room temperature for 15 min, and luminescence is measured using a luminometer. EC50 values and curve fits were obtained using Prism (GraphPad Software).

TGFBR2 = target: T1, TGFBR2 (Homo sapiens, UniProt P37173); assay: TGFBR2 RBC enzyme assay (Reaction Biology Corp.); format: biochemical
T1 construct: purchased Reaction Biology Corp
T1 sequence (P37173 23-567): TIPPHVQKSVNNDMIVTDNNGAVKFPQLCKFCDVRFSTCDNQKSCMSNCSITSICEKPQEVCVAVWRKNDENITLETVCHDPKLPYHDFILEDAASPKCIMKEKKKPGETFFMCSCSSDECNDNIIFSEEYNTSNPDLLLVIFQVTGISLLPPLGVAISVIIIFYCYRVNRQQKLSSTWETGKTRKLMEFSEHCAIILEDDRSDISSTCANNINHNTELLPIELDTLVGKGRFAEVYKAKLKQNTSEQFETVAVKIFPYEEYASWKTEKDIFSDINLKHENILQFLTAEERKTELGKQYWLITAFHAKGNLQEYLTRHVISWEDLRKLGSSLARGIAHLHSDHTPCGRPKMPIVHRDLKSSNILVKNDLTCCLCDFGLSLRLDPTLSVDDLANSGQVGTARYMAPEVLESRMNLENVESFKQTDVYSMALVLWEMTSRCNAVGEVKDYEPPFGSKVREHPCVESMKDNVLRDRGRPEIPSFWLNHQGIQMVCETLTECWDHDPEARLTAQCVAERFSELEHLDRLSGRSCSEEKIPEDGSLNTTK
Description: Compounds of the disclosure were assayed by Reaction Biology Corp. using the TGFBR2 RBC enzyme assay.

| SMILES | EC50 [1] [nM] | EC50 (TGFBR2) [nM] |
| --- | --- | --- |
| Nc1ncc2nc1C(=O)Nc1cnccc1OCCCOc1cccc-2c1 [Compound 21, 2^5-amino-6,10-dioxa-4-aza-2(2,6)-pyrazina-5(3,4)-pyridina-1(1,3)-benzenacyclodecaphan-3-one] | > 5000 | > 1000 |
| CN1CCCNC(=O)c2cc(ccc2OCCCN)-c2cnc(N)c(n2)C(=O)Nc2cnccc21 [Compound 53, 2^5-amino-1^4-(3-aminopropoxy)-6-methyl-4,6,10-triaza-2(2,6)-pyrazina-5(3,4)-pyridina-1(1,3)-benzenacycloundecaphane-3,11-dione] | > 5000 | 100 to 1000 |
| Cc1ccc2cc1OCCCN(C)c1ccncc1NC(=O)c1nc-2cnc1N [Compound 12, 2^5-amino-1^4,6-dimethyl-10-oxa-4,6-diaza-2(2,6)-pyrazina-5(3,4)-pyridina-1(1,3)-benzenacyclodecaphan-3-one] | 1 to 1000 | 1 to 100 |
| CN1CCCNC(=O)c2cccc(c2)-c2cnc(N)c(n2)C(=O)Nc2cnccc21 [Compound 31, 2^5-amino-6-methyl-4,6,10-triaza-2(2,6)-pyrazina-5(3,4)-pyridina-1(1,3)-benzenacycloundecaphane-3,11-dione] | 1000 to 5000 | 100 to 1000 |
| CN1CCCOc2cc(ccc2CCCCN)-c2cnc(N)c(n2)C(=O)Nc2cnccc21 [Compound 62, 2^5-amino-1^4-(4-aminobutyl)-6-methyl-10-oxa-4,6-diaza-2(2,6)-pyrazin-5(3,4)-pyridina-1(1,3)-benzenacyclodecaphan-3-one] | 1 to 1000 | 1 to 100 |
| Nc1ncc2nc1C(=O)Nc1cnccc1NCCCCCOc1cccc-2c1 [Compound 3, 2^5-amino-12-oxa-4,6-diaza-2(2,6)-pyrazina-5(3,4)-pyridina-1(1,3)-benzenacyclododecaphan-3-one] | > 5000 | > 1000 |
| CN1CCOc2cc(OCCCN)ccc2-c2cnc(N)c(n2)C(=O)Nc2cnccc21 [Compound 65, 2^5-amino-1^4-(3-aminopropoxy)-6-methyl-9-oxa-4,6-diaza-2(2,6)-pyrazina-5(3,4)-pyridina-1(1,2)-benzenacyclononaphan-3-one] | 1 to 1000 | 1 to 100 |
| CC(C)(C)OC(=O)N1C[C@@H]2C[C@@H]1COc1cccc(c1)-c1cnc(N)c(n1)C(=O)Nc1cnccc1O2 (racemic) [Compound 35, (±)-tert-butyl(5^2,5^4-trans)-1^5-amino-9-oxo-3,6-dioxa-8-aza-1(2,6)-pyrazina-7(4,3)-pyridina-5(2,4)-pyrrolidina-2(1,3)-benzenacyclononaphane-51-carboxylate] | > 5000 | > 1000 |
| CN1CCOCc2cccc(c2)-c2cnc(N)c(n2)C(=O)Nc2cnccc21 [Compound 15, 2^5-amino-6-methyl-9-oxa-4,6-diaza-2(2,6)-pyrazina-5(3,4)-pyridina-1(1,3)-benzenacyclodecaphan-3-one] | 1 to 1000 | 1 to 100 |
| Nc1ncc2nc1C(=O)Nc1cnccc1OC[C@@H]1C[C@H](CN1)Oc1cccc-2c1 (racemic) [Compound 40, (±)-(4^3,4^5-trans)-1^5-amino-3,6-dioxa-8-aza-1(2,6)-pyrazina-7(4,3)-pyridina-4(3,5)-pyrrolidina-2(1,3)-benzenacyclononaphan-9-one] | 1000 to 5000 | > 1000 |
| CN1C[C@H](CNCc2ccccc2)Oc2ccccc2-c2cnc(N)c(n2)C(=O)Nc2cnccc21 [Compound 59, (S)-2^5-amino-8-((benzylamino)methyl)-6-methyl-9-oxa-4,6-diaza-2(2,6)-pyrazina-5(3,4)-pyridina-1(1,2)-benzenacyclononaphan-3-one] | > 5000 | > 1000 |
| CN1CCNC(=O)c2cc(ccc2OCCCN)-c2cnc(N)c(n2)C(=O)Nc2cnccc21 [Compound 55, 2^5-amino-1^4-(3-aminopropoxy)-6-methyl-4,6,9-triaza-2(2,6)-pyrazina-5(3,4)-pyridina-1(1,3)-benzenacyclodecaphane-3,10-dione] | > 5000 | 100 to 1000 |
| CN1CCCC(=O)Nc2cccc(c2)-c2cnc(N)c(n2)C(=O)Nc2cnccc21 [Compound 28, 2^5-amino-6-methyl-4,6,11-triaza-2(2,6)-pyrazina-5(3,4)-pyridina-1(1,3)-benzenacycloundecaphane-3,10-dione] | > 5000 |  |
| CN1CCCOc2cc(ccc2OCCCN)-c2cnc(N)c(n2)C(=O)Nc2cnccc21 [Compound 61, 2^5-amino-1^4-(3-aminopropoxy)-6-methyl-10-oxa-4,6-diaza-2(2,6)-pyrazina-5(3,4)-pyridina-1(1,3)-benzenacyclodecaphan-3-one] | 1 to 1000 | 1 to 100 |
| CN1CCCN(C)c2ccncc2NC(=O)c2nc(cnc2N)-c2ccc(OCCCN)c(c2)C1=O [Compound 54, 2^5-amino-1^4-(3-aminopropoxy)-6,10-dimethyl-4,6,10-triaza-2(2,6)-pyrazina-5(3,4)-pyridina-1(1,3)-benzenacycloundecaphane-3,11-dione] | > 5000 |  |
| CC(C)(C)OC(=O)N1C[C@@H]2C[C@H]1COc1ccncc1NC(=O)c1nc(cnc1N)-c1cccc(c1)O2 (racemic) [Compound 41, (±)-tert-butyl(4^3,4^5-cis)-1^5-amino-9-oxo-3,6-dioxa-8-aza-1(2,6)-pyrazina-7(4,3)-pyridina-4(3,5)-pyrrolidina-2(1,3)-benzenacyclononaphane-41-carboxylate] | 1 to 1000 |  |
| CN1C[C@@H](CNCc2ccccc2)Oc2ccccc2-c2cnc(N)c(n2)C(=O)Nc2cnccc21 [Compound 57, (R)-2^5-amino-8-((benzylamino)methyl)-6-methyl-9-oxa-4,6-diaza-2(2,6)-pyrazin-5(3,4)-pyridina-1(1,2)-benzenacyclononaphan-3-one] | 1000 to 5000 | > 1000 |
| CC1OCCN(C)c2ccncc2NC(=O)c2nc(cnc2N)-c2cccc1c2 (stereo not drawn) [Compound 20] | 1 to 1000 | 1 to 100 |
| Nc1ncc2nc1C(=O)Nc1cnccc1S(=O)(=O)CCCOc1ccc(Br)c-2c1 [Compound 52, 2^5-amino-1^6-bromo-10-oxa-6-thia-4-aza-2(2,6)-pyrazina-5(3,4)-pyridina-1(1,3)-benzenacyclodecaphan-3-one 6,6-dioxide] | > 5000 |  |

Continued, values first:

| EC50 [1] [nM] | EC50 (TGFBR2) [nM] | SMILES |
| --- | --- | --- |
| 1 to 1000 | 1 to 100 | CN1CCCCOc2cccc(c2)-c2cnc(N)c(n2)C(=O)Nc2cnccc21 [Compound 5, 2^5-amino-6-methyl-11-oxa-4,6-diaza-2(2,6)-pyrazina-5(3,4)-pyridina-1(1,3)-benzenacycloundecaphan-3-one] |
| 1 to 1000 | 1 to 100 | CN1CCCOc2cccc(c2)-c2cnc(N)c(n2)C(=O)Nc2cnccc21 [Compound 6, 2^5-amino-6-methyl-10-oxa-4,6-diaza-2(2,6)-pyrazina-5(3,4)-pyridina-1(1,3)-benzenacyclodecaphan-3-one] |
| > 5000 | > 1000 | Nc1ncc2nc1C(=O)Nc1cnccc1N1CCC(CC1)COc1cccc-2c1 [Compound 22, 1^5-amino-3-oxa-7-aza-1(2,6)-pyrazina-6(4,3)-pyridina-5(4,1)-piperidina-2(1,3)-benzenacyclooctaphan-8-one] |
| 1 to 1000 | 1 to 100 | Nc1ncc2nc1C(=O)Nc1cnccc1NCCCOc1cccc-2c1 [Compound 4, 2^5-amino-10-oxa-4,6-diaza-2(2,6)-pyrazina-5(3,4)-pyridina-1(1,3)-benzenacyclodecaphan-3-one] |
| > 5000 | > 1000 | Nc1ncc2nc1C(=O)Nc1cnccc1O[C@@H]1CN[C@@H](COc3cccc-2c3)C1 (racemic) [Compound 36, (±)-(5^2,5^4-trans)-1^5-amino-3,6-dioxa-8-aza-1(2,6)-pyrazina-7(4,3)-pyridina-5(2,4)-pyrrolidina-2(1,3)-benzenacyclononaphan-9-one] |
| 1 to 1000 | 100 to 1000 | CCN1CCCOc2cccc(c2)-c2cnc(N)c(n2)C(=O)Nc2cnccc21 [Compound 13, 2^5-amino-6-ethyl-10-oxa-4,6-diaza-2(2,6)-pyrazina-5(3,4)-pyridina-1(1,3)-benzenacyclodecaphan-3-one] |
| 1 to 1000 | 1 to 100 | CN1CCOc2cccc(c2)-c2cnc(N)c(n2)C(=O)Nc2cnccc21 [Compound 11, 2^5-amino-6-methyl-9-oxa-4,6-diaza-2(2,6)-pyrazina-5(3,4)-pyridina-1(1,3)-benzenacyclononaphan-3-one] |
| 1 to 1000 | 1 to 100 | Nc1ncc2nc1C(=O)Nc1cnccc1N1CCC(COc3cccc-2c3)C1 (stereo not drawn) [Compound 25, 1^5-amino-3-oxa-7-aza-1(2,6)-pyrazina-6(4,3)-pyridina-5(3,1)-pyrrolidina-2(1,3)-benzenacyclooctaphan-8-one] |
| > 5000 |  | Nc1ncc2nc1C(=O)Nc1cnccc1N1CCC(CCOc3cccc-2c3)C1 (stereo not drawn) [Compound 24, 2^5-amino-9-oxa-4-aza-2(2,6)-pyrazina-5(3,4)-pyridina-6(1,3)-pyrrolidina-1(1,3)-benzenacyclononaphan-3-one] |
